Data from US20260199367A1, “PLK1 DEGRADATION INDUCING COMPOUNDS WITH INCREASED RIGIDITY” (UPPTHERA, INC., priority 2022, published 2026).

How the values were obtained:
Format in all cases: cell-based
[1] = molecular target: T1, PLK1 (Homo sapiens, UniProt P53350); assay: Luciferase assay for PLK1 in HeLa LgBit (PLK1-HiBit KI) cell line; conditions: released after thymidine block, compound 300 nM, luminescence after 9 hours
T1 construct: endogenous in cells; host or cells: HeLa LgBit (PLK1-HiBit KI): HeLa cells stably expressing LgBit, with CRISPR/Cas9 knock-in of HiBit at the endogenous PLK1 locus
Experimental: A HeLa cell line in which the LgBit vector was transfected and expressed stably was prepared. Then, after constructing gRNA and donor to express the HiBit amino acid sequence behind the C-terminal of the PLK1 gene, which was inherent in the cell, it was inserted into the cell together with a vector capable of expressing CRISPR/Cas9. Only the cells in which the insertion was completed and knock-in had progressed were selected, sub-cultured and used.
The compounds of Examples were completely dissolved in DMSO (Sigma-Aldrich Cat. No. D2438, Lot. No. RNBL5438) and used in the experiment.
In the case of HeLa LgBit (Plk1-HiBit KI), the compounds were treated after being released after thymidine block, and the process was as follows. Thymidine (Sigma-Aldrich Cat. No. T9250-5G) was completely dissolved in ddH2O and used in the experiment. For thymidine block, the products were treated with 2 mM of thymidine and then incubated for 24 hours. For release and chemical treatment, the medium was suctioned and washed with 1×PBS. TrypLE™ was added and incubated in 37° C. CO2 incubator (Thermo Fisher Science, Cat. No. 4111) for 5 mins. Cells neutralized by adding complete media were counted through a counter. For each well of a 96-well culture plate (SPL), 3.3×10^4 cells and a total medium volume of 150 μl were seeded and incubated in a CO2 incubator.
Each cell line was incubated in a CO2 incubator for 18 hours, and Endurazine (Promega, Cat. No. N257B) was added to each well to make up 4% of the total volume. After adding compounds of Examples in a 96-well white plate (SPL) to a concentration of 300 nM, the wavelength of the plate reader (BMG Labtech, CLARIOstar Plus) was set to 470-480 nM, and then the luminescence was tracked in real time.

[2] = tested on: NCI-H526 (H526) cell line; assay: Cell viability assay for NCI-H526 cell line; conditions: Homo sapiens, NCI-H526, 120 h, 5 days, EZ-Cytox, 0.46-3000 nM
From the text: (§1) The NCI-H69 (hereafter H69) and NCI-H526 (hereafter H526) cell lines were purchased from Korea Cell Line Bank (KCLB, Seoul, Korea). For cell culture, RPMI 1640 (Gibco, Cat. No. 22400-089; Lot. No. 2537146), FBS (Gibco, Cat. No. 16000-044; Lot. No. 2511328P), Penicillin/Streptomycin (PS) (Gibco, Cat. No. 15140-122; Lot. No. 2441887), 75T cell culture flask (SPL, Cat. No. 71075), 175T cell culture flask (SPL, Cat. No. 71175), 96-well cell culture plate (SPL, Cat. No. 30096), PBS pH 7.4 (Gibco, Cat. No. 10010-023; Lot. No. 2509235), TrypLE™ Express (Gibco, Cat. No. 12605-010; Lot. No. 2323417), Cell Counter (Hematocytometer)(As one, Cat. No. 4-458-01), and 0.4% Trypan Blue Solution (DYNEBIO, Cat. No. CBT3710; Lot. No. 20221111) were used.
(§2) The compounds of Examples were completely dissolved in DMSO (Sigma-Aldrich Cat. No. D2438, Lot. No. RNBL7287) and used in the experiment. 3×10^4 cells were seeded for each well of a 96-well plate (SPL), and the cells were cultured in total volume of 150 μl. Each compound was diluted 3-folds from the highest concentration of 3000 nM to the lowest concentration of 0.46 nM. After treating the compound to each well to make the total volume of 200 μl, it was cultured in a CO2 incubator (Thermo Fisher Science, Cat. No. 4111) for 5 days. Then, after treating EZ-Cytox (DOGEN, Cat.NO. EZ-3000, Lot. No. DLS2308) 20 μl in each well, it was cultured in CO2 incubator for 4 hours. The absorbance of the completely cultured sample was measured by setting the wavelength of a plate reader (BMG Labtech, CLARIOstar Plus) to […], and was measured after shaking for 3 minutes in a plate reader before measurement.
(§3) (A: IC50 is less than 20 nM, B: IC50 is 50 nM or less, C: IC50 is 100 nM or less)

[3] = tested on: NCI-H69 (H69) cell line; assay: Cell viability assay for NCI-H69 cell line; conditions: Homo sapiens, NCI-H69, 120 h, 5 days, EZ-Cytox, 0.46-3000 nM
From the text: as §1, §2, §3

T1 sequence (P53350 whole entry): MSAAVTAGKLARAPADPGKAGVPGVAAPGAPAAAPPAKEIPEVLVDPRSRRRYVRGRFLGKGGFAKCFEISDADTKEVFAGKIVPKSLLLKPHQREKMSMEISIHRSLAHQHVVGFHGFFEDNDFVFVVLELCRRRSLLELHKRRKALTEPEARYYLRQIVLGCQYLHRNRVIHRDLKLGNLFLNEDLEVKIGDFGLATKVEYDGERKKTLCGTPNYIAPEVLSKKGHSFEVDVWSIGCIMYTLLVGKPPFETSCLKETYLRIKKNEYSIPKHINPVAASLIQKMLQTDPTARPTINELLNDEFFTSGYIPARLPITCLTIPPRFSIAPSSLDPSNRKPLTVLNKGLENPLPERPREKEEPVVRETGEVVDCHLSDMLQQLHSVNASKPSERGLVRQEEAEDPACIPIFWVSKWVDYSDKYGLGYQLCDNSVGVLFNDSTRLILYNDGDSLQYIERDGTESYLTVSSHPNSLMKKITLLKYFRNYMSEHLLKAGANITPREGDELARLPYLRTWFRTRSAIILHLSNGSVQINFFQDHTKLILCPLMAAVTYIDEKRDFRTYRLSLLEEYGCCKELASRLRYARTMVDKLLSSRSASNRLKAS

CC[C@@H]1C(=O)N(C)c2cnc(Nc3ccc(C(=O)NCC4CCN(CC5CCN(c6ccc(NC7CCC(=O)NC7=O)cc6)CC5)CC4)cc3OC)nc2N1C1CCCC1 (stereo partly drawn) [Compound 13, 4-(((R)-8-cyclopentyl-7-ethyl-5-methyl-6-oxo-5,6,7,8-tetrahydropteridin-2-yl)amino)-N-((1-((1-(4-((2,6-dioxopiperidin-3-yl)amino)phenyl)piperidin-4-yl)methyl)piperidin-4-yl)methyl)-3-methoxybenzamide]
Value (luminescence value, PLK1-HiBit) [1]: 0.165
IC50 [2]: < 20 nM
IC50 [3]: ≤ 100 nM

CC[C@@H]1C(=O)N(C)c2cnc(Nc3ccc(C(=O)NC4CCN(C(=O)CCN5CCN(c6ccc(NC7CCC(=O)NC7=O)cc6)CC5)CC4)cc3OC(F)(F)F)nc2N1C1CCCC1 (stereo partly drawn) [Compound 14, 4-(((R)-8-cyclopentyl-7-ethyl-5-methyl-6-oxo-5,6,7,8-tetrahydropteridin-2-yl)amino)-N-(1-(3-(4-(4-((2,6-dioxopiperidin-3-yl)amino)phenyl)piperazin-1-yl)propanoyl)piperidin-4-yl)-3-(trifluoromethoxy)benzamide]
Value (luminescence value, PLK1-HiBit) [1]: 0.269
IC50 [2]: < 20 nM
IC50 [3]: ≤ 50 nM

CC[C@@H]1C(=O)N(C)c2cnc(Nc3ccc(-c4nnc(CNC5CCN(C(=O)C(N)CN6CCN(c7ccc(C8CCC(=O)NC8=O)cc7)CC6)CC5)o4)cc3OC)nc2N1C1CCCC1 (stereo partly drawn) [Compound 15, 3-(4-(4-(2-amino-3-(4-(((5-(4-(((R)-8-cyclopentyl-7-ethyl-5-methyl-6-oxo-5,6,7,8-tetrahydropteridin-2-yl)amino)-3-methoxyphenyl)-1,3,4-oxadiazol-2-yl)methyl)amino)piperidin-1-yl)-3-oxopropyl)piperazin-1-yl)phenyl)piperidine-2,6-dione]
Value (luminescence value, PLK1-HiBit) [1]: 0.345
IC50 [2]: ≤ 50 nM
IC50 [3]: ≤ 100 nM

CC[C@@H]1C(=O)N(C)c2cnc(Nc3ccc(-c4nnc(CNC5CCC(N6CCC(NCc7ccc(C8CCC(=O)NC8=O)cc7)CC6)CC5)o4)cc3OC)nc2N1C1CCCC1 (stereo partly drawn) [Compound 16, 3-(4-(((1-((1r,4r)-4-(((5-(4-(((R)-8-cyclopentyl-7-ethyl-5-methyl-6-oxo-5,6,7,8-tetrahydropteridin-2-yl)amino)-3-methoxyphenyl)-1,3,4-oxadiazol-2-yl)methyl)amino)cyclohexyl)piperidin-4-yl)amino)methyl)phenyl)piperidine-2,6-dione]
Value (luminescence value, PLK1-HiBit) [1]: 0.263
IC50 [2]: ≤ 50 nM
IC50 [3]: ≤ 100 nM

CC[C@@H]1C(=O)N(C)c2cnc(Nc3ccc(-c4nnc(CNC5CCC(NCC6CCN(c7ccc(C8CCC(=O)NC8=O)cc7F)CC6)CC5)o4)cc3OC)nc2N1C1CCCC1 (stereo partly drawn) [Compound 17, 3-(4-(4-((((1r,4r)-4-(((5-(4-(((R)-8-cyclopentyl-7-ethyl-5-methyl-6-oxo-5,6,7,8-tetrahydropteridin-2-yl)amino)-3-methoxyphenyl)-1,3,4-oxadiazol-2-yl)methyl)amino)cyclohexyl)amino)methyl)piperidin-1-yl)-3-fluorophenyl)piperidine-2,6-dione]
Value (luminescence value, PLK1-HiBit) [1]: 0.172
IC50 [2]: < 20 nM
IC50 [3]: ≤ 50 nM

CC[C@@H]1C(=O)N(C)c2cnc(Nc3ccc(C(=O)NC4CCC(NCC5CCN(c6ccc(C7CCC(=O)NC7=O)cc6F)CC5)CC4)cc3OC)nc2N1C1CCCC1 (stereo partly drawn) [Compound 18, 4-(((R)-8-cyclopentyl-7-ethyl-5-methyl-6-oxo-5,6,7,8-tetrahydropteridin-2-yl)amino)-N-((1r,4R)-4-(((1-(4-(2,6-dioxopiperidin-3-yl)-2-fluorophenyl)piperidin-4-yl)methyl)amino)cyclohexyl)-3-methoxybenzamide]
Value (luminescence value, PLK1-HiBit) [1]: 0.111
IC50 [2]: < 20 nM
IC50 [3]: < 20 nM

CC[C@@H]1C(=O)N(C)c2cnc(Nc3ccc(C(=O)NN4CCC(C(N)CN5CCN(c6ccc(C7CCC(=O)NC7=O)cc6F)CC5)CC4)cc3OC)nc2N1C1CCCC1 (stereo partly drawn) [Compound 19, N-(4-(1-amino-2-(4-(4-(2,6-dioxopiperidin-3-yl)-2-fluorophenyl)piperazin-1-yl)ethyl)piperidin-1-yl)-4-(((R)-8-cyclopentyl-7-ethyl-5-methyl-6-oxo-5,6,7,8-tetrahydropteridin-2-yl)amino)-3-methoxybenzamide]
Value (luminescence value, PLK1-HiBit) [1]: 0.132
IC50 [2]: ≤ 50 nM
IC50 [3]: ≤ 50 nM

CC[C@@H]1C(=O)N(C)c2cnc(Nc3ccc(C(=O)NC4CCC(N5CCN(CCc6ccc(C7CCC(=O)NC7=O)cc6)CC5)CC4)cc3OC)nc2N1C1CCCC1 (stereo partly drawn) [Compound 20, 4-(((R)-8-cyclopentyl-7-ethyl-5-methyl-6-oxo-5,6,7,8-tetrahydropteridin-2-yl)amino)-N-((1r,4R)-4-(4-(4-(2,6-dioxopiperidin-3-yl)phenethyl)piperazin-1-yl)cyclohexyl)-3-methoxybenzamide]
Value (luminescence value, PLK1-HiBit) [1]: 0.154
IC50 [2]: < 20 nM
IC50 [3]: < 20 nM

CC[C@@H]1C(=O)N(C)c2cnc(Nc3ccc(C(=O)NN4CCC(N5CCC(CNc6ccc(C7CCC(=O)NC7=O)cc6)CC5)CC4)cc3OC)nc2N1C1CCCC1 (stereo partly drawn) [Compound 21, 4-(((R)-8-cyclopentyl-7-ethyl-5-methyl-6-oxo-5,6,7,8-tetrahydropteridin-2-yl)amino)-N-(4-(((4-(2,6-dioxopiperidin-3-yl)phenyl)amino)methyl)-[1,4′-bipiperidin]-1′-yl)-3-methoxybenzamide]
Value (luminescence value, PLK1-HiBit) [1]: 0.144
IC50 [2]: < 20 nM
IC50 [3]: < 20 nM

CC[C@@H]1C(=O)N(C)c2cnc(Nc3ccc(C(=O)NC4CCN(C5CCN(CCc6ccc(C7CCC(=O)NC7=O)cc6)CC5)CC4)cc3OC)nc2N1C1CCCC1 (stereo partly drawn) [Compound 22, 4-(((R)-8-cyclopentyl-7-ethyl-5-methyl-6-oxo-5,6,7,8-tetrahydropteridin-2-yl)amino)-N-(1′-(4-(2,6-dioxopiperidin-3-yl)phenethyl)-[1,4′-bipiperidin]-4-yl)-3-methoxy benzamide]
Value (luminescence value, PLK1-HiBit) [1]: 0.145
IC50 [2]: < 20 nM
IC50 [3]: ≤ 50 nM

CC[C@@H]1C(=O)N(C)c2cnc(Nc3ccc(C(=O)NN4CCC(C5CCN(CCc6ccc(C7CCC(=O)NC7=O)cc6)CC5)CC4)cc3OC)nc2N1C1CCCC1 (stereo partly drawn) [Compound 23, 4-(((R)-8-cyclopentyl-7-ethyl-5-methyl-6-oxo-5,6,7,8-tetrahydropteridin-2-yl)amino)-N-(1′-(4-(2,6-dioxopiperidin-3-yl)phenethyl)-[4,4′-bipiperidin]-1-yl)-3-methoxy benzamide]
Value (luminescence value, PLK1-HiBit) [1]: 0.186
IC50 [2]: < 20 nM
IC50 [3]: < 20 nM

CC[C@@H]1C(=O)N(C)c2cnc(Nc3ccc(C(=O)NC4CCN(C(=O)CCN5CCN(c6ccc(NC7CCC(=O)NC7=O)cc6)CC5)CC4)cc3OC)nc2N1C1CCCC1 (stereo partly drawn) [Compound 24, 4-(((R)-8-cyclopentyl-7-ethyl-5-methyl-6-oxo-5,6,7,8-tetrahydropteridin-2-yl)amino)-N-(1-(3-(4-(4-((2,6-dioxopiperidin-3-yl)amino)phenyl)piperazin-1-yl)propanoyl)piperidin-4-yl)-3-methoxybenzamide]
Value (luminescence value, PLK1-HiBit) [1]: 0.206
IC50 [2]: < 20 nM
IC50 [3]: < 20 nM
